{
  "source": "patent US10085983B2",
  "about": "“Azabicyclo derivatives, process for preparation thereof and medical use thereof” (Shanghai Haiyan Pharmaceutical Technology Co., Ltd., priority 2014, dated 2018)",
  "key": {"[1]": {"assay": "Stability of compound CC0922", "format": "physicochemical"}, "[2]": {"target": "T790M/L858R double mutant EGFR kinase (Homo sapiens (Human), UniProt P00533, L858R/T790M)", "sequence (P00533 25-1210 T790M/L858R)": "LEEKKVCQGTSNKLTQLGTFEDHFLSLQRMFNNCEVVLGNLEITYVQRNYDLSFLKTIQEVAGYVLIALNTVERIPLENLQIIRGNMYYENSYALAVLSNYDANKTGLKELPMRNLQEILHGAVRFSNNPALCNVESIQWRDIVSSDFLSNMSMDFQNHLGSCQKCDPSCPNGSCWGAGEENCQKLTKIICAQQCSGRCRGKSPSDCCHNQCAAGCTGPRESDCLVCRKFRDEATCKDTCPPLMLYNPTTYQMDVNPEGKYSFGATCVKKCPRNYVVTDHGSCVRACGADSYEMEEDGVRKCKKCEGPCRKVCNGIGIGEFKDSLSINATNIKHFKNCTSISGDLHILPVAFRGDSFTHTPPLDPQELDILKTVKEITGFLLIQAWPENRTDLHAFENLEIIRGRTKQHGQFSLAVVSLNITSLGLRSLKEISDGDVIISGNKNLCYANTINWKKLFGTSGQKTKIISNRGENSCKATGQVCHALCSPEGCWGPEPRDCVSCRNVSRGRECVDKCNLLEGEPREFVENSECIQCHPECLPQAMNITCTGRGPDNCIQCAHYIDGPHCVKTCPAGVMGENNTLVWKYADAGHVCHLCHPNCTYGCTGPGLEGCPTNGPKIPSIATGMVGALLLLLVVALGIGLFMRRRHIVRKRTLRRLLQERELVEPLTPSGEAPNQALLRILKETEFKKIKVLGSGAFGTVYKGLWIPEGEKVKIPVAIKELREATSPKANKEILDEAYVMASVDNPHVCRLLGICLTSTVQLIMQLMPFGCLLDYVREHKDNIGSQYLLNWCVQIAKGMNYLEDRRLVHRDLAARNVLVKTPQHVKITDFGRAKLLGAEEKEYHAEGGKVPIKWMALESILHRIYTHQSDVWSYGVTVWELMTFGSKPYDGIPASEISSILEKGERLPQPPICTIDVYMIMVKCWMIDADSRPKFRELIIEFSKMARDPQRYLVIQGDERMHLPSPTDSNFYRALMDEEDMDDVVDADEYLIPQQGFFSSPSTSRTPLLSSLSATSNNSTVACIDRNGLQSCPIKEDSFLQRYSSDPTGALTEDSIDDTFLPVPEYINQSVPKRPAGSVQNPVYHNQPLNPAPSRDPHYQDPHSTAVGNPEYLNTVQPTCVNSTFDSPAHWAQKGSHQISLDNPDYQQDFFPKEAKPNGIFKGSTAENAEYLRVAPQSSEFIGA", "assay": "z'-lyte assay of inhibitory activity on T790M/L858R double mutant EGFR kinase", "format": "biochemical", "conditions": "for Selective inhibitory activity against enzymes [IC50 (EGFR WT)/IC50 (T790M/L858R)]: ratio of enzyme IC50 values; for IC50: z'-lyte assay, 25 μM ATP"}, "[3]": {"target": "EGFR phosphorylation in H1975 (EGFR T790M mutant) cells (Homo sapiens (Human), UniProt P00533, L858R/T790M)", "sequence (P00533 25-1210 T790M/L858R)": "as above", "assay": "Inhibition of EGFR phosphorylation in H1975 cells (ELISA);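 for all read-outs here: Phospho-EGFR in cell lysates measured by capture-antibody ELISA with TMB substrate after compound exposure, cells given DMSO alone (0.5% final) serving as control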", "format": "cell-based", "conditions": "for IC50: ELISA of EGFR phosphorylation, 1 h compound treatment, read-out: H1975 cell (IC50/μM); for Selective inhibitory activity against targets at the cell level [IC50 (A431 cell)/IC50 (H1975 cell)]: ratio of ELISA IC50 values", "procedure": "(§1) In the following methods, the reagents used, the preparation methods of solutions, the cell treatment and the preparation steps of the lysis solution, as well as the ELISA assay steps, were carried out according to the instructions of R&D DYC3570, R&D DYC1095E and R&D DYC1095BE.\n(§2) Cell lysis solution: Cell lysis buffer+10 μg/mL Aprotinin (Sigma)+10 μg/mL Leupeptin (Sigma), prepared on site.\n(§3) Wash buffer: PBS buffer containing 0.05% (v/v) Tween-20.\n(§4) Blocking solution: PBS buffer containing 1% (w/v) BSA.\n(1) H1975 cells (purchased from the Cell Bank of the Type Culture Collection Committee, Chinese Academy of Sciences) were seeded into 96-well plates at a density of 1×10^4/well, each cell containing 90 μl of RPMI1640 medium with 10% (V/V) FBS, and cultured overnight at 37° C. in 5% (v/v) CO2.\n(2) The compounds to be tested were diluted in accordance with the drug dilution method in the MTT assay. 10 μL of the diluted compound or diluted DMSO was added to the corresponding wells of the cell culture plate, and the final concentration of DMSO was 0.5% (V/V). The plate was cultured at 37° C. in 5% (v/v) CO2 for 1 h. The cell culture system treated with DMSO alone was used as cell control.\n(3) The medium was removed and then 100 μL of cell lysis solution was added. The plate was sealed and placed in a refrigerator at −80° C. overnight. The cell lysis buffer was used as blank control.\nThe assay was conducted according to the instructions given in R&D DYC1095E or R&D DYC1095BE.\n(1) R&D capture antibody ((DYC1095BE or DYC1095E)) was diluted with PBS in the proportion of 1:180.\n(§5) (2) The plate was washed 3 times with 360 μL of the wash buffer.\n(3) 300 μL of the blocking solution was added and the plate was incubated at 25° C. with shaking for 2 hours.\n(4) The plate was washed 3 times with 360 μL of the wash buffer.\n(§6) (5) 40 μL of cell lysis buffer and 60 μL of cell lysis solution were added and the plate was incubated at 25° C. with shaking for 2 hours.\n(§7) (6) The plate was washed 3 times with 360 μL of the wash buffer.\n(§8) (7) The detection antibody was diluted with the detection antibody diluent in the proportion specified in the instructions of the kit. 100 μL of the diluted antibody was added to each well and the plate was incubated at 25° C. with shaking in dark for 1 h.\n(8) The plate was washed 3 times with 360 μL of wash buffer.\n(9) A reagent and B reagent in the TMB substrate (R&D DY999) were mixed in 1:1. 100 μL of the mixture was added to each well and incubated in dark at 25° C. with shaking for 20 min.\n(§9) (10) 50 μL of 2N H2SO4 was added to each well.\n(11) The plate was read with a microplate reader (Thermo Multiskan K3). OD 450 values and OD570 values of the cell control, blank control, and drug treatment wells were measured. ODcell, ODblank and ODdrug treatment were obtained by subtracting the corresponding OD570 value from the OD 450 value of the same well.\n2.3 Data Analysis Inhibition rate (%)=100%×(ODcell−ODdrug treatment)/(ODcell−ODblank)"}, "[4]": {"target": "EGFR phosphorylation in A431 (EGFR wild-type) cells (Homo sapiens (Human), UniProt P00533)", "sequence (P00533 25-1210)": "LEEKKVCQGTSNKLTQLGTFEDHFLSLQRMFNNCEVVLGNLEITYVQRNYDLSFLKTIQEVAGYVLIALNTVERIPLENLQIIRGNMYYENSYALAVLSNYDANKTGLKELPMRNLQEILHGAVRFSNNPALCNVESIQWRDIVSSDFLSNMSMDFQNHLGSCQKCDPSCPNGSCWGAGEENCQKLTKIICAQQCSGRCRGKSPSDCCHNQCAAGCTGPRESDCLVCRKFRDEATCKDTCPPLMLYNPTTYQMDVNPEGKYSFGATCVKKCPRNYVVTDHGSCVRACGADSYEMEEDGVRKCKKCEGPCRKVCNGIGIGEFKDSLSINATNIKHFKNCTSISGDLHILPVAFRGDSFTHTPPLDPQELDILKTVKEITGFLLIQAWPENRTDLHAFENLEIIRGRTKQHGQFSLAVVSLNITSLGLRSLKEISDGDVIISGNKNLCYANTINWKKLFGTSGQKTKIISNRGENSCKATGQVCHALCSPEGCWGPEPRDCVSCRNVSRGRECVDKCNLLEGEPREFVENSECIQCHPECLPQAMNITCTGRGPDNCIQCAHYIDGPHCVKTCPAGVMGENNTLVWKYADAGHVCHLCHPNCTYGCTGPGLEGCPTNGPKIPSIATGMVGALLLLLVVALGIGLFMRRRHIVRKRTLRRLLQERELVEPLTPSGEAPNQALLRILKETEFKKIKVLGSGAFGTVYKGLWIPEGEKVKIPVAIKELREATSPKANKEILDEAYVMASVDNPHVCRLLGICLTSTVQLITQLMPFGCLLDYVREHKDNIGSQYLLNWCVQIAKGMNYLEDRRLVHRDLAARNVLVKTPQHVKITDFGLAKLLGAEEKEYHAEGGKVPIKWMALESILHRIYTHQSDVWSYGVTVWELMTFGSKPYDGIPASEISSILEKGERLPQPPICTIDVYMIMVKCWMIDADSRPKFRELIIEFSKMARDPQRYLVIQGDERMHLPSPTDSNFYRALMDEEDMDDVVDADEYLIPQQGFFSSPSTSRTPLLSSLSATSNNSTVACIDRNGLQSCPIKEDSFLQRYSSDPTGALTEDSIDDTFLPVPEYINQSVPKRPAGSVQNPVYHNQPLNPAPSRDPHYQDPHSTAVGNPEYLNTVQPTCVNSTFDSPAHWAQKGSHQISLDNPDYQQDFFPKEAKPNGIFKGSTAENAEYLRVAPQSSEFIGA", "assay": "Inhibition of EGFR phosphorylation in A431 cells (ELISA)", "format": "cell-based", "conditions": "1 h compound treatment, EGF stimulation, read-out: A431 cell (IC50/μM)", "procedure": "as §1\nI. Reagents and Solutions\nas §2, §3, §4\n3.1 A431 Cell Treatment and Testing Procedures\n(1) A431 cells (purchased from the Cell Bank of the Type Culture Collection Committee, Chinese Academy of Sciences) were seeded in 96-well plates at a density of 1×10^4/well in 90 μl of DMEM medium containing 10% FBS and cultured at 37° C. in 5% CO2 overnight.\n(2) The A431 cell culture medium was replaced with 90 μl of serum-free DMEM medium and the plate was cultured overnight.\n(3) The compound to be tested was diluted according to the drug dilution method in MTT assay. 10 μL of the diluted compound or diluted DMSO was added to the corresponding wells of the cell culture plate, and the final concentration of DMSO was 0.5%. The plate was cultured at 37° C. in 5% CO2 for 1 hour. […] The cells without EGF and drug treatment were used as cell control, and the cells treated with EGF without drugs were used as EGF control.\n(4) The medium was removed and then 100 μL of the cell lysis solution was added. The plate was sealed and placed in a refrigerator at −80° C. overnight.\nThe assay was conducted according to the instructions given in R&D DYC3570E.\n(1) R&D capture antibody (DYC3570E) was diluted with PBS in the proportion of 1:180.\nas §5\n(3) 200 μL of the blocking solution was added and the plate was incubated at 25° C. with shaking for 2 hours.\n(4) The plate was washed 3 times with 360 μL of wash buffer.\nas §6, §7, §8\n(8) The plate was washed 3 times with 360 μL of the wash buffer.\n(9) A reagent and B reagent in TMB substrate (R&D DY999) were mixed in 1:1. 100 μL of the mixture was added to each well and incubated in dark at 25° C. with shaking for 20 min.\nas §9\n(11) The plate was read with a microplate reader (Thermo Multiskan K3). OD 450 values and OD570 values of the cell control, blank control, and drug treatment wells were measured. ODEGF, ODdrug and ODcell were obtained by subtracting the corresponding OD570 value from the OD 450 value of the same well.\n3.3 Data Analysis Inhibition rate (%)=100%×(ODEGF−ODdrug)/(ODEGF−ODcell)"}, "H1975 cells": {"system": "H1975 cells", "assay": "Cell growth inhibition by MTT assay, H1975 cells;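 for all read-outs here: MTT read-out in 96-well plates after 72 h compound exposure of H1975 and A431 cells, with selectivity given as the A431 IC50 divided by the H1975 IC50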", "format": "cell-based", "conditions": "for IC50: MTT assay, 72 hours; for Selective inhibitory activity against cell growth [IC50 (A431 cell)/IC50 (H1975 cell)]: ratio of MTT IC50 values", "procedure": "(§10) The steps of the MTT assay were carried out using methods well known to those skilled in the art, and all the reagents used in the methods are commercially available.\n(§11) After the first wash, another 1.5 mL of trypsin/EDTA was added to digest the adherent cells until the cells detached. Then 3.5 mL of the culture medium was added to terminate the digestion. The digested cell suspension was transferred to a 15 mL centrifuge tube and centrifuged at 1300 rpm for 3 minutes. The supernatant was discarded and the cells were resuspended in fresh medium. The cells were then counted and diluted to the following concentrations: 27,800 cells per milliliter of H1975 cells, 33,300 cells per milliliter of A431 cells and NIH3T3 cells (purchased from the Cell Bank of the Type Culture Collection Committee, Chinese Academy of Sciences).\n(§12) After the drug was added, the cells were incubated in an incubator for 72 hours. 10 μL of 5 mg/ml MTT (Sigma, M5655) solution was added to each well. The 96-well plate was then incubated in a 37° C. and 5% CO2 incubator for 4 h.\n(§13) The plate was then centrifuged at 2000 rpm for 5 min. After the supernatant was removed, 150 μl of DMSO was added to each well and the plate was shaken in a shaker until all crystal violet was dissolved."}, "A431 cells": {"system": "A431 cells", "assay": "Cell growth inhibition by MTT assay, A431 cells", "format": "cell-based", "conditions": "72 hours", "procedure": "as §10, §11, §12, §13"}, "NIH3T3 cells": {"system": "NIH3T3 cells", "assay": "Toxicity test on NIH3T3 cells by MTT assay", "format": "cell-based", "conditions": "72 hours", "procedure": "as §10, §11, §12, §13"}, "wild-type EGFR kinase": {"target": "wild-type EGFR kinase (Homo sapiens (Human), UniProt P00533)", "sequence (P00533 25-1210)": "as above", "conditions": "read-out: EGFR WT (IC50/μM); z'-lyte assay, 10 μM ATP", "procedure": "All reagents used in the following z′-lyte assay were purchased from Invitrogen.\nThe working concentrations of each component in 10 μL wild-type EGFR kinase reaction system were: 10 μM ATP, 0.8 ng/μL wild-type EGFR kinase, 2 μM Tyr04 substrate (Invitrogen, PV3193). The concentration of DMSO after addition of the compound to be tested was 2 vol %.\n10 mM drug stock solution was dissolved at room temperature and gradiently diluted to a final concentration of 4-0.002 μM with 8 vol % DMSO solution. […] Then 2.5 μl of ATP was added to initiate the reaction. Wherein, ATP was replaced by the reaction buffer in well C1, no drug was added to well C2, and the phosphorylated substrate was added to well C3 according to the instructions. The mixture was allowed to react at 25° C. in a shaker in dark for 60 min. 5 μL of Development Reagent B (Invitrogen, diluted with TR-FRET dilution buffer) was added and allowed to react at room temperature in the shaker for 60 minutes.\nThe inhibition rate was calculated according to the following method (refer to the instructions of Invitrogen, PV3193):\n1. ER=Coumarin Emission (450 nm)/Fluorescein Emission (520 nm)\nThe half-inhibitory concentration IC50 was obtained through fitting calculation by using XLFIT 5.0 software (IDBS, UK)."}, "[5]": {"system": "T790M mutant cell line H1975", "conditions": "background statement; cited from earlier work"}},
  "data": [
    {"smiles": "C=CC(=O)Nc1cccc(-c2ccc3cnc(Nc4ccc(N(C)CCN(C)C)cc4OC)nn23)c1", "note": "[CC0922]", "values": [
      {"measurement": "stability", "setting": "[1]", "result": "very unstable"}
    ]},
    {"smiles": "C=CC(=O)Nc1cc(Nc2ncc3ccc(-c4cccnc4)n3n2)c(OC)cc1N(C)CCN(C)C", "note": "[Compound J-6, N-(2-((2-(dimethylamino)ethyl)(methyl)amino)-4-methoxy-5-(7-(pyridin-3-yl)pyrrolo[1,2-f][1,2,4]triazin-2-ylamino)phenyl)acrylamide]", "values": [
      {"measurement": "Selective inhibitory activity against enzymes [IC50 (EGFR WT)/IC50 (T790M/L858R)]", "setting": "[2]", "result": 5.42},
      {"measurement": "IC50", "setting": "[2]", "result": 0.0024, "unit": "µM"},
      {"measurement": "IC50", "setting": "[3]", "result": 0.027, "unit": "µM"},
      {"measurement": "Selective inhibitory activity against targets at the cell level [IC50 (A431 cell)/IC50 (H1975 cell)]", "setting": "[3]", "result": 11.4},
      {"measurement": "IC50", "setting": "[4]", "result": 0.309, "unit": "µM"},
      {"measurement": "IC50", "setting": "H1975 cells", "result": 0.028, "unit": "µM"},
      {"measurement": "Selective inhibitory activity against cell growth [IC50 (A431 cell)/IC50 (H1975 cell)]", "setting": "H1975 cells", "result": 15.3},
      {"measurement": "IC50", "setting": "A431 cells", "result": 0.427, "unit": "µM"},
      {"measurement": "IC50", "setting": "NIH3T3 cells", "result": 8.21, "unit": "µM"},
      {"measurement": "IC50", "setting": "wild-type EGFR kinase", "result": 0.013, "unit": "µM"}
    ]},
    {"smiles": "C=CC(=O)Nc1cc(Nc2ncc3ccc(C)n3n2)c(OC)cc1N(C)CCN(C)C", "note": "[Compound J-9, N-(2-((2-(dimethylamino)ethyl)(methyl)amino)-4-methoxy-5-(7-methylpyrrolo[1,2-f][1,2,4]triazin-2-ylamino)phenyl)acrylamide]", "values": [
      {"measurement": "Selective inhibitory activity against enzymes [IC50 (EGFR WT)/IC50 (T790M/L858R)]", "setting": "[2]", "result": 6.6},
      {"measurement": "IC50", "setting": "[2]", "result": 0.016, "unit": "µM"},
      {"measurement": "IC50", "setting": "[3]", "result": 0.186, "unit": "µM"},
      {"measurement": "Selective inhibitory activity against targets at the cell level [IC50 (A431 cell)/IC50 (H1975 cell)]", "setting": "[3]", "result": 5},
      {"measurement": "IC50", "setting": "[4]", "result": 0.92, "unit": "µM"},
      {"measurement": "IC50", "setting": "H1975 cells", "result": 0.125, "unit": "µM"},
      {"measurement": "Selective inhibitory activity against cell growth [IC50 (A431 cell)/IC50 (H1975 cell)]", "setting": "H1975 cells", "result": 13.2},
      {"measurement": "IC50", "setting": "A431 cells", "result": 1.65, "unit": "µM"},
      {"measurement": "IC50", "setting": "NIH3T3 cells", "result": "> 10", "unit": "µM"},
      {"measurement": "IC50", "setting": "wild-type EGFR kinase", "result": 0.105, "unit": "µM"}
    ]},
    {"smiles": "C=CC(=O)Nc1cc(Nc2ncc3ccc(-c4ccccc4)n3n2)c(OC)cc1N(C)CCN(C)C", "note": "[Compound J-11, N-(2-((2-(dimethylamino)ethyl)(methyl)amino)-4-methoxy-5-(7-phenylpyrrolo[1,2-f][1,2,4]triazin-2-ylamino)phenyl)acrylamide]", "values": [
      {"measurement": "Selective inhibitory activity against enzymes [IC50 (EGFR WT)/IC50 (T790M/L858R)]", "setting": "[2]", "result": 4.2},
      {"measurement": "IC50", "setting": "[2]", "result": 0.0024, "unit": "µM"},
      {"measurement": "IC50", "setting": "[3]", "result": 0.063, "unit": "µM"},
      {"measurement": "Selective inhibitory activity against targets at the cell level [IC50 (A431 cell)/IC50 (H1975 cell)]", "setting": "[3]", "result": 3.8},
      {"measurement": "IC50", "setting": "[4]", "result": 0.237, "unit": "µM"},
      {"measurement": "IC50", "setting": "H1975 cells", "result": 0.026, "unit": "µM"},
      {"measurement": "Selective inhibitory activity against cell growth [IC50 (A431 cell)/IC50 (H1975 cell)]", "setting": "H1975 cells", "result": 23.9},
      {"measurement": "IC50", "setting": "A431 cells", "result": 0.621, "unit": "µM"},
      {"measurement": "IC50", "setting": "NIH3T3 cells", "result": 5.57, "unit": "µM"},
      {"measurement": "IC50", "setting": "wild-type EGFR kinase", "result": 0.01, "unit": "µM"}
    ]},
    {"smiles": "C=CC(=O)Nc1cc(Nc2ncc3ccc(-c4ccn(C)c4)n3n2)c(OC)cc1N(C)CCN(C)C", "note": "[Compound J-12, N-(2-((2-(dimethylamino)ethyl)(methyl)amino)-4-methoxy-5-(7-(1-methyl-1H-pyrrol-3-yl)pyrrolo[1,2-f][1,2,4]triazin-2-ylamino)phenyl)acrylamide]", "values": [
      {"measurement": "Selective inhibitory activity against enzymes [IC50 (EGFR WT)/IC50 (T790M/L858R)]", "setting": "[2]", "result": 4.2},
      {"measurement": "IC50", "setting": "[2]", "result": 0.0019, "unit": "µM"},
      {"measurement": "IC50", "setting": "[3]", "result": 0.015, "unit": "µM"},
      {"measurement": "Selective inhibitory activity against targets at the cell level [IC50 (A431 cell)/IC50 (H1975 cell)]", "setting": "[3]", "result": 1.5},
      {"measurement": "IC50", "setting": "[4]", "result": 0.023, "unit": "µM"},
      {"measurement": "IC50", "setting": "H1975 cells", "result": 0.009, "unit": "µM"},
      {"measurement": "Selective inhibitory activity against cell growth [IC50 (A431 cell)/IC50 (H1975 cell)]", "setting": "H1975 cells", "result": 36.9},
      {"measurement": "IC50", "setting": "A431 cells", "result": 0.332, "unit": "µM"},
      {"measurement": "IC50", "setting": "NIH3T3 cells", "result": 4.73, "unit": "µM"},
      {"measurement": "IC50", "setting": "wild-type EGFR kinase", "result": 0.008, "unit": "µM"}
    ]},
    {"smiles": "C=CC(=O)Nc1cc(Nc2ncc3ccc(-c4cnc5ccccc5c4)n3n2)c(OC)cc1N1CCC(N(C)C)CC1", "note": "[Compound J-13, N-(2-(4-(dimethylamino)piperidin-1-yl)-4-methoxy-5-(7-(quinolin-3-yl)pyrrolo[1,2-f][1,2,4]triazin-2-ylamino)phenyl)acrylamide]", "values": [
      {"measurement": "Selective inhibitory activity against enzymes [IC50 (EGFR WT)/IC50 (T790M/L858R)]", "setting": "[2]", "result": 4.2},
      {"measurement": "IC50", "setting": "[2]", "result": 0.005, "unit": "µM"},
      {"measurement": "IC50", "setting": "[3]", "result": 0.043, "unit": "µM"},
      {"measurement": "Selective inhibitory activity against targets at the cell level [IC50 (A431 cell)/IC50 (H1975 cell)]", "setting": "[3]", "result": 7},
      {"measurement": "IC50", "setting": "[4]", "result": 0.301, "unit": "µM"},
      {"measurement": "IC50", "setting": "H1975 cells", "result": 0.013, "unit": "µM"},
      {"measurement": "Selective inhibitory activity against cell growth [IC50 (A431 cell)/IC50 (H1975 cell)]", "setting": "H1975 cells", "result": 28.4},
      {"measurement": "IC50", "setting": "A431 cells", "result": 0.369, "unit": "µM"},
      {"measurement": "IC50", "setting": "NIH3T3 cells", "result": 2.97, "unit": "µM"},
      {"measurement": "IC50", "setting": "wild-type EGFR kinase", "result": 0.021, "unit": "µM"}
    ]},
    {"smiles": "C#Cc1cccc(Nc2ncnc3cc(OCCOC)c(OCCOC)cc23)c1", "note": "[erlotinib]", "values": [
      {"measurement": "activity in the T790M mutant cell line H1975", "setting": "[5]", "result": "greater than 3 uM"}
    ]},
    {"smiles": "COc1cc2ncnc(Nc3ccc(F)c(Cl)c3)c2cc1OCCCN1CCOCC1", "note": "[gefitinib]", "values": [
      {"measurement": "activity in the T790M mutant cell line H1975", "setting": "[5]", "result": "greater than 3 uM"}
    ]}
  ]
}
